Laboratory results from patent US7498337B2, “Acid secretion inhibitor” (Takeda Pharmaceutical Company Limited, priority 2005, dated 2009).

What was measured:
[1] = target: T1, H+,K+-ATPase (gastric mucous membrane microsomal fraction) (Sus scrofa, UniProt P19156); experiment: Proton potassium-adenosine triphosphatase (H+,K+-ATPase) inhibitory activity test; assay type: biochemical; details: swine gastric microsomal fraction, pH 6.5, 37° C., 30 min preincubation
T1 construct: The obtained microsomal fraction was used as a proton, potassium-adenosine triphosphatase standard product; from tissue; host or cells: swine stomach, gastric mucous membrane microsomal fraction
T1 sequence (P19156 2-1034 limits assumed): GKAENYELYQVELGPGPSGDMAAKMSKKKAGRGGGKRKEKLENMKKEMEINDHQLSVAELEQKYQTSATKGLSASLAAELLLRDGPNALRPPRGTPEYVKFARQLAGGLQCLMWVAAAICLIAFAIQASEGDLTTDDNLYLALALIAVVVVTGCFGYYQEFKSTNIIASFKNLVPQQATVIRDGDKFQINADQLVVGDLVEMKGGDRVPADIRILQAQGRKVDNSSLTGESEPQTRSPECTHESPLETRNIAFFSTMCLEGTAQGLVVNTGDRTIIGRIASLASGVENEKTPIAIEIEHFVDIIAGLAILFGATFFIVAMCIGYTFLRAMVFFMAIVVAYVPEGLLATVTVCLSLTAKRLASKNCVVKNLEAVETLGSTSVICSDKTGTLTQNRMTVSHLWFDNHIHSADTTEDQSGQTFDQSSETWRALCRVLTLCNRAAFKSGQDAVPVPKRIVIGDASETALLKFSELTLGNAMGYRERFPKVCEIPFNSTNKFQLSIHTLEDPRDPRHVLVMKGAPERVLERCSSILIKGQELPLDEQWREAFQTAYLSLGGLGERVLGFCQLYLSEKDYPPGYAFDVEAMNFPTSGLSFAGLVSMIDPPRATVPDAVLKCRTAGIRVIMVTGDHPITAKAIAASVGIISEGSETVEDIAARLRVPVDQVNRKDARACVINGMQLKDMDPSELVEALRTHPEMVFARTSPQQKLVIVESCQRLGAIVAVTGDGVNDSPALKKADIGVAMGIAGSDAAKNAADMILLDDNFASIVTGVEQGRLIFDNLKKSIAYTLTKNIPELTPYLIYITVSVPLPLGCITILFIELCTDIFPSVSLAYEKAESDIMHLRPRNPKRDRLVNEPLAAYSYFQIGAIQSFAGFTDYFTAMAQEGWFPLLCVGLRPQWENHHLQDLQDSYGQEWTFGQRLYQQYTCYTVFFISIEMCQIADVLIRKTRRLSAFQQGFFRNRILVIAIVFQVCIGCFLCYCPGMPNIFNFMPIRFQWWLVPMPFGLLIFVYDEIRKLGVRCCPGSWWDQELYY
T1 sequence (P18434 whole entry partner): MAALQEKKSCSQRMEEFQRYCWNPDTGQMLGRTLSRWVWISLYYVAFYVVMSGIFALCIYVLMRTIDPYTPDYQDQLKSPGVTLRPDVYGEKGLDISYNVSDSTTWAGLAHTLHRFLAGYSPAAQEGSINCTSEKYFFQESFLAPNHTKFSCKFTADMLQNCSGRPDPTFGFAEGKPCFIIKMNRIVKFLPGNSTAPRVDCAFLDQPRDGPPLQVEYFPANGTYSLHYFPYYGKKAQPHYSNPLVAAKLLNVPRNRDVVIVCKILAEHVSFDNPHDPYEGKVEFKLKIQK
Method: Proton Potassium-Adenosine Triphosphatase (H^+,K^+-ATPase) Inhibitory Activity Test According to the method [Biochim. Biophys. Acta, 728, 31 (1983)] of Wallmark et al., a gastric mucous membrane microsomal fraction was prepared from the stomach of swine. First, the stomach was removed, washed with tap water, immersed in 3 mol/L brine, and the surface of the mucous membrane was wiped with a paper towel. The gastric mucous membrane was detached, chopped, and homogenized in a 0.25 mol/L saccharose solution (pH 6.8) containing 1 mmol/L EDTA and 10 mmol/L tris-hydrochloric acid using polytron (Kinematica). The obtained homogenate was centrifuged at 20,000×g for 30 min and the supernatant was centrifuged at 100,000×g for 90 min. The precipitate was suspended in 0.25 mol/L saccharose solution, superimposed on a 0.25 mol/L saccharose solution containing 7.5% Ficoll, and centrifuged at 100,000×g for 5 hr. The fraction containing the interface between the both layers was recovered, and centrifugally washed with 0.25 mol/L saccharose solution. The obtained microsomal fraction was used as a proton, potassium-adenosine triphosphatase standard product. […] The enzyme reaction was started by adding 5 μL of a 2 mmol/L-adenosine triphosphate tris salt solution (50 mmol/L HEPES-tris buffer (5 mmol/L magnesium chloride, pH 6.5)). The enzyme reaction was carried out at 37° C. for 20 min, and 15 μL of a malachite green solution (0.12% malachite green solution in sulfuric acid (2.5 mol/L), 7.5% ammonium molybdate and 11% Tween 20 were mixed at a ratio of 100:25:2) was added to quench the reaction. […] In addition, the amount of the inorganic phosphoric acid in the reaction solution free of potassium chloride was measured in the same manner, which was subtracted from the inorganic phosphoric acid amount in the presence of potassium chloride to determine the proton, potassium-adenosine triphosphatase activity.

HepG2 cells = experiment: Intracellular ATP content in HepG2 cells (cytotoxicity); assay type: cell-based, human; details: HepG2, 30 μM, culture for one day, relative value to control, ATPLite, n≧3 average
Method: Human liver cancer-derived cell line HepG2 (ATCC No. HB-8065) was passaged using Dulbecco's Modified Eagle medium (DMEM; Invitrogen) containing 10% fetal bovine serum (FBS; TRACE SCIENTIFIC LTD.), 1 mmol/L sodium pyruvate (Invitrogen), 2 mmol/L L-glutamine (Invitrogen), 50 IU/mL penicillin (Invitrogen) and 50 μg/mL streptomycin (Invitrogen) at 5% CO2, 37° C. The test reagent was prepared with DMSO to 10 mM, and further diluted with DMEM medium containing 0.5% FBS, 1 mmol/L sodium pyruvate, 2 mmol/L L-glutamine, 50 IU/mL penicillin and 50 μg/mL streptomycin to a final concentration of DMSO of 0.1%. HepG2 (2×10^4 cells/well) was cultured on a 96 well white plate (Costar) with the test reagent at 5% CO2, 37° C. After culture for one day, the intracellular ATP content was measured using ATPLite™ (PerkinElmer Life Sciences). The results are shown in Table 24 (n≧3, average value±SD) as a relative value (%) to control (without addition of drug) at 30 μM.

IC50 [1] [µM]	SMILES	ATP content (%, 30 μM) (HepG2 cells) [%]
0.21	CNCc1cc(-c2cccnc2F)n(S(=O)(=O)c2cccnc2)c1.O=C(O)/C=C/C(=O)O [Example 74, 1-[5-(2-fluoropyridin-3-yl)-1-(pyridin-3-ylsulfonyl)-1H-pyrrol-3-yl]-N-methylmethanamine fumarate]	95.2
0.048	CNCc1cc(-c2ccccc2F)n(S(=O)(=O)c2ccc(C)nc2)c1.Cl.Cl [Example 44, 1-{5-(2-fluorophenyl)-1-[(6-methylpyridin-3-yl)sulfonyl]-1H-pyrrol-3-yl}-N-methylmethanamine dihydrochloride]	78.5
0.058	CNCc1cc(-c2ccccc2C)n(S(=O)(=O)c2cccnc2)c1.O=C(O)/C=C/C(=O)O [Example 47, N-methyl-1-[5-(2-methylphenyl)-1-(pyridin-3-ylsulfonyl)-1H-pyrrol-3-yl]methanamine fumarate]	81.8

Continued, compound first:

SMILES	IC50 [1] [µM]	ATP content (%, 30 μM) (HepG2 cells) [%]
CNCc1cc(-c2ccccc2)n(S(=O)(=O)c2cnc(C)nc2)c1.Cl.Cl [Example 7, N-methyl-1-[1-(2-methylpyrimidin-5-ylsulfonyl)-5-phenyl-1H-pyrrol-3-yl]-methanamine dihydrochloride]	0.034	76.5
CNCc1cn(S(=O)(=O)c2cccnc2)c(-c2ccccc2)c1F.Cl.Cl [Example 41, 1-[4-fluoro-5-phenyl-1-(pyridin-3-ylsulfonyl)-1H-pyrrol-3-yl]-N-methylmethanamine dihydrochloride]	0.043	86.7
CNCc1cc(-c2ccccc2)n(S(=O)(=O)c2cnc(NC)nc2)c1.Cl [Example 5, N-methyl-1-{1-[2-(methylamino)pyrimidin-5-ylsulfonyl]-5-phenyl-1H-pyrrol-3-yl}methanamine hydrochloride]	0.065	73.9
CNCc1cc(-c2ccccc2)n(S(=O)(=O)c2ccc(OC)nc2)c1.Cl [Example 2, 1-{1-[(6-methoxypyridin-3-yl)sulfonyl]-5-phenyl-1H-pyrrol-3-yl}-N-methylmethanamine hydrochloride]	0.013	45.2
CNCc1cc(-c2ccccc2F)n(S(=O)(=O)c2cccnc2)c1.O=C(O)/C=C/C(=O)O [Example 8, 1-[5-(2-fluorophenyl)-1-(pyridin-3-ylsulfonyl)-1H-pyrrol-3-yl]-N-methylmethanamine fumarate]	0.022	87.9
CNCc1cc(-c2ccc(F)cc2F)n(S(=O)(=O)c2cccnc2)c1.Cl.Cl [Example 32, 1-[5-(2,4-difluorophenyl)-1-(pyridin-3-ylsulfonyl)-1H-pyrrol-3-yl]-N-methylmethanamine dihydrochloride]	0.0089	53.6
CNCc1cc(-c2cscc2C)n(S(=O)(=O)c2cccnc2)c1.Cl.Cl [Example 29, N-methyl-1-[5-(4-methyl-3-thienyl)-1-(pyridin-3-ylsulfonyl)-1H-pyrrol-3-yl]methanamine dihydrochloride]	0.041	71.5
